Counter-ions that a name gives are not always drawn. Where a SMILES comes first, the peptide text is derived from it. [ ]: non-standard residue; d: D form. The star is where a group is joined. Sta = CC(C)C[C@H](N)[C@@H](O)CC(=O)O; Isovaleryl = CC(C)CC(=O)*
Tests used:
[1] = target: T1, Candida albicans acid protease (Candida albicans, UniProt P0DJ06); test: In vitro inhibitor assay, microtiter assay with fluorogenic substrate A78331; assay type: biochemical, Candida albicans ATCC10231
T1 construct: endogenous in cells; host or cells: Candida albicans ATCC10231 (proteinase secreted into the culture medium, purified in house)
T1 sequence (P0DJ06 57-398): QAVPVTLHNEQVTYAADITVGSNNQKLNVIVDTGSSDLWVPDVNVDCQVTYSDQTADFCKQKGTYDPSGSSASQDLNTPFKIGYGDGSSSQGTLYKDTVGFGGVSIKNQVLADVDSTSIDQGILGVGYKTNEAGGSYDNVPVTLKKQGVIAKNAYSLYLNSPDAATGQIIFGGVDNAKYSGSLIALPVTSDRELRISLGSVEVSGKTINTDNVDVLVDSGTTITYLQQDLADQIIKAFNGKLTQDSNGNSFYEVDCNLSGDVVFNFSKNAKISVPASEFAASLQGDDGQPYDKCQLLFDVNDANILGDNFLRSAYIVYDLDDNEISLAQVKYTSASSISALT
Description: Isolation and Purification of Candida albican Acid Protease Organism and growth conditions. Candida albicans ATCC10231 was grown overnight in Sabouraud broth (Difco) at 30° C. Cells were centrifuged at 10,000xg for 10 min (4° C.) and the cell pellet washed once with 10 mM phosphate buffered saline (PBS), pH7.0. Washed cells (6×10^6 colony forming units per mL) were grown in yeast nitrogen base without ammonium sulfate or amino acids (Difco), plus 2% glucose and 0.1% casein (nitrogen source) at 37° C.
Proteinase isolation. […] Cells were then harvested at 10,000xg for 20 min (4° C.) and the supernatant filtered through a 0.2μ acetate filter unit (Nalgen). The filtrate was concentrated on an Amicon concentrator (PM30 or YM10 membrane, 75 mm) and 30 mL of the concentrate was loaded onto a Cibacron blue F3GA-6% agarose (Pierce Chem.) column (1.5x44cm) equilibrated with 10 mM sodium citrate, pH 6.5, containing lmM EDTA and 0.02% sodium azide (Ray, T. L., and Payne, C. D. Infection and Immunity 58:508-514, 1990). Bovine serum albumin (BSA) was used as substrate to monitor the column for proteinase activity and to determine total proteolytic units. One BSA proteolytic unit was defined as an optical density (750 nm wavelength) increase of 0.100 under incubation conditions of 37° C. for 60 min (Remold, H., Fasold, H., and Staib, F. Biochimica et Biophysica Acta I67:399-406, 1968). […] Proteinase purity and molecular weight was determined by the Phast-gel (12.5% acrylamide) electrophoresis system (Pharmacia). Protein was determined by the Lowry method (Lowry, O. H., Rosenbrough, N. J., Farr, A. L., and Randall, R. J. Journal of Biological Chemistry 193:263-275, 1951). A fluorogenic substrate, A78331, may also be used to monitor proteinase production and purification. This substrate, DABCYL-Gaba-[…]EDANS (Holzman, T. F., Chung, C. C., Edalji, R., Egan, D. A., Gubbins, E. J., Rueter, A., Howard, G., Yang, L. K., Pederson, T. M., Krafft, G. A., and Wang, G. T. Journal of Protein Chemistry 9:663-672, 1990) contains the fluorescent EDANS group, [5-(2-aminoethyl)-amino]naphthalene-1-sulfonic acid, which is quenched by the DABCYL group, 4-(4-dimethyl-aminophenylazo)benzoic acid, as long as it is part of the molecule (Matayoshi, E. D., Wang, G. T., Krafft, G. A., and Erickson, J. Science 247:954-958, 1990). Proteolysis of this compound by the fungal proteinase releases Thr-EDANS, which when activated at 340 nm fluoresces at 490 nm with the same intensity as equimolar EDANS. Activity is expressed in terms of nmol EDANS released from 32 μM A78331 under incubation conditions of 22° C. for 60 min.
In Vitro Inhibitor Assay Method
Microtiter assay. The assay for inhibitors of C. albicans acid proteinase was done in microtiter trays with the fluorogenic substrate A78331. […] The reaction mixture consisted of 5μL test compound or dimethyl sulfoxide and 45μL of fungal proteinase (0.13 BSA proteolytic units or 0.13 nmol EDANS released) in 50 mM sodium citrate, pH 4.5, which was preincubated at 22° C. for 30 min. The reaction was started with the addition of 50μL fluorogenic substrate in citrate buffer and the incubation was continued at 22° C. for 90 min. The reaction was terminated with 150μL pepstatin (final concentration of 1μM) and 210μL samples were transfered to microfluor plates for fluorescence quantitation in a luminescence spectrophotometer (Perkin-Elmer model LS-50). The excitation wavelength was 340 nm and the emission was monitored at 490 nm (430 nm filter employed). Inhibition was expressed as % change in relative intensity from the dimethyl sulfoxide control group (no inhibitor). IC50's were determined from plots of log dose versus % inhibition from control.

[2] = system: Candida acid protease; conditions: background art; cited from earlier work

Compound | IC50 [1] | potency as inhibitor of Candida acid protease (in words) [2] | specificity (in words) [2]
CCCCNC(=O)[C@H](C[C@H](O)[C@H](CC1CCCCC1)NC(=O)[C@H](CCCC)N1CCN(C(=O)N2CCN(C)CC2)[C@H](Cc2ccccc2)C1=O)C(C)C [Example 1, (2S)-2-((3R)-3-Benzyl-4-N-(4-methylpiperazin-1-yl-carbonyl)-2-keto-piperazin-1-yl}-hexanoic acid Amide of (2R,4S,5S)-5-amino-6-cyclohexyl-4-hydroxy-2-isopropylhexanoyl N-(n-Butyl)amide Hydrochloride] | 1.3 nM |  | 
CCCC[C@@H](C(=O)N[C@@H](CC1CCCCC1)[C@@H](O)[C@@H](O)CC(C)C)N1CCN(S(=O)(=O)c2ccc(NC)cc2)[C@H](Cc2ccccc2)C1=O [Example 11, (2S)-2-{(3R)-3-Benzyl-4-N-(4-(methylamino)benzene-sulfonyl)-2-keto-piperazin-1-yl}-hexanoic acid Amide of (2S,3R,4S)-2-Amino-1-cyclohexyl-3,4-dihydroxyl-6-methylheptane] | 85 nM |  | 
CCCC[C@@H](C(=O)N[C@@H](CC1CCCCC1)[C@@H](O)C[C@@H](C(=O)NCCCN1CCOCC1)C(C)C)N1CCN(C(=O)N2CCN(C)CC2)[C@@H](Cc2ccccc2)C1=O [Example 12, (2S)-2-{(3S)-3-Benzyl-4-N-(4-methylpiperazin-1-yl-carbonyl)-2-keto-piperazin-1-yl}-hexanoic acid Amide of (2R,4S,5S)-5-Amino-6-cyclohexyl-4-hydroxy-2-isopropylhexanoyl N-3-(N-Morpholinyl)propyllamide] | 3.8 nM |  | 
CCCCNC(=O)[C@H](C[C@H](O)[C@H](CC1CCCCC1)NC(=O)[C@H](CCCC)N1CCN(S(=O)(=O)c2ccc(OC)cc2)[C@H](Cc2ccccc2)C1=O)C(C)C [Example 5, (2S)-2-{(3R)-3-Benzyl-4-N-(4-methoxybenzene-sulfonyl)-2-keto-piperazin-1-yl)-hexanoic acid Amide of (2R,4S,5S)-5-Amino-6-cyclohexyl-4-hydroxy-2-isopropylhexanoyl N-(n-Butyl)amide] | 13.3 nM |  | 
CCCC[C@@H](C(=O)N[C@@H](CC1CCCCC1)[C@@H](O)C[C@@H](C(=O)NCCN(C)C)C(C)C)N1CCN(C(=O)N2CCN(C)CC2)[C@H](Cc2ccccc2)C1=O [Example 17] | 6.2 nM |  | 
CCCCNC(=O)[C@H](C[C@H](O)[C@H](CC1CCCCC1)NC(=O)[C@H](CCCC)N1CCN(S(=O)(=O)N2CCN(C)CC2)[C@@H](Cc2ccccc2)C1=O)C(C)C [Example 13] | 2.7 nM |  | 
CC(C)C[C@H](NC(=O)[C@@H](NC(=O)N[C@@H](Cc1ccccc1)C(=O)O)[C@@H]1CCN=C(N)N1)C(=O)N[C@H](C=O)Cc1ccccc1 [chymostatin] |  | not very potent inhibitors of the enzyme | non-specific
CCCCNC(=O)[C@H](C[C@H](O)[C@H](CC1CCCCC1)NC(=O)[C@H](CCCC)N1C[C@@H](Cc2ccccc2)N(S(=O)(=O)c2ccc(C)cc2)CC1=O)C(C)C [Example 3, (2S)-2-{(3R)-3-Benzyl-4-N-(4-methylbenzene-sulfonyl)-6-keto-piperazin-1-yl}-hexanoic acid Amide of (2R,4S,5S)-5-Amino-6-cyclohexyl-4-hydroxy-2-isopropylhexanoyl N-(n-Butyl)amide] | 30.1 nM |  | 
CCCC[C@@H](C(=O)N[C@@H](CC1CCCCC1)[C@@H](O)C[C@@H](C(=O)NCCCN1CCOCC1)C(C)C)N1CCN(C(=O)N2CCC(OCOC)CC2)[C@@H](Cc2ccccc2)C1=O [Example 16, (2S)-2-{(3S)-3-Benzyl-4-N-(4-methoxymethoxypiperidin-1-yl-carbonyl)-2-keto-piperazin-1-yl}-hexanoic acid Amide of (2R, 4S, 5S)-5-Amino-6-cyclohexyl-4-hydroxy-2-isopropylhexanoyl N-[3-(N-Morpholinyl)propyl]amide] | 5 nM |  | 
CC(C)CC(=O)N[C@H](C(=O)N[C@H](C(=O)N[C@@H](CC(C)C)[C@@H](O)CC(=O)N[C@@H](C)C(=O)N[C@@H](CC(C)C)[C@@H](O)CC(=O)O)C(C)C)C(C)C [Pepstatin A] (Isovaleryl-VV[Sta]A[Sta]-OH) |  | not very potent inhibitors of the enzyme | non-specific
CCCCNC(=O)[C@H](C[C@H](O)[C@H](CC1CCCCC1)NC(=O)[C@H](CCCC)N1CCN(C(=O)N2CCC(OCOC)CC2)[C@@H](Cc2ccccc2)C1=O)C(C)C [Example 14, 2S-(3S-Benzyl-4-N-(4-methoxymethoxypiperidinyl-carbonyl)-2-keto-piperazin-1-yl)-hexanoic acid Amide of (2R,4,5S) -5-Amino-6-cyclohexyl-4-hydroxy-2-isopropylhexanoyl N-(n-Butyl)amide] | 4.5 nM |  | 
CCCC[C@@H](C(=O)N[C@@H](CC1CCCCC1)[C@@H](O)C[C@@H](C(=O)NCCCN(C)C)C(C)C)N1CCN(C(=O)N2CCN(C)CC2)[C@H](Cc2ccccc2)C1=O [Example 18, (2S)-2{(3R)-3-Benzyl-4-N-(4-methylpiperazin-1-yl-carbonyl)-2-keto-piperazin-1-yl}-hexanoic acid Amide of (2R,4S,5S)-5-Amino-6-cyclohexyl-4-hydroxy-2-isopropylhexanoyl N-[3-(Dimethylamino)propyl]amide] | 3.8 nM |  | 
CCCC[C@@H](C(=O)N[C@@H](CC1CCCCC1)[C@@H](O)C[C@@H](C(=O)NCCCN1CCOCC1)C(C)C)N1CCN(S(=O)(=O)N2CCN(C)CC2)[C@@H](Cc2ccccc2)C1=O [Example 15, (2S)-2-{(3S)-3-Benzyl-4-N-(4-methylpiperazin-1-yl-sulfonyl)-2-keto-piperazine-1-yl}-hexanoic acid Amide of (2R,4S,5S)-5-Amino-6-cyclohexyl-4hydroxy-2-isopropylhexanoyl N-[3-(N-Morpholinyl)propyl]amide] | 3.8 nM |  | 

Reference: patent publication US5120718A, “Candida acid protease inhibiting compounds” (priority 1991, dated 1992)
